Measured values: PMC9343605, “Structural insights into ligand recognition and selectivity of somatostatin receptors” (Cell Research, 2022)

Columns and labels:
[1] = target: T1, SSTR2 (Homo sapiens, UniProt P30874); assay: cAMP accumulation assay (agonist-induced inhibition of forskolin-stimulated cAMP), SSTR2, HEK293F; type: cell-based; set-up: expressed in transfected cells; host or cells: HEK293F; details: WT SSTR2;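 further: transiently transfected cells exposed to 2 µM forskolin and a ligand concentration series for 40 min at room temperature in IBMX-containing HBSS, then cAMP quantified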
T1 sequence (P30874 whole entry): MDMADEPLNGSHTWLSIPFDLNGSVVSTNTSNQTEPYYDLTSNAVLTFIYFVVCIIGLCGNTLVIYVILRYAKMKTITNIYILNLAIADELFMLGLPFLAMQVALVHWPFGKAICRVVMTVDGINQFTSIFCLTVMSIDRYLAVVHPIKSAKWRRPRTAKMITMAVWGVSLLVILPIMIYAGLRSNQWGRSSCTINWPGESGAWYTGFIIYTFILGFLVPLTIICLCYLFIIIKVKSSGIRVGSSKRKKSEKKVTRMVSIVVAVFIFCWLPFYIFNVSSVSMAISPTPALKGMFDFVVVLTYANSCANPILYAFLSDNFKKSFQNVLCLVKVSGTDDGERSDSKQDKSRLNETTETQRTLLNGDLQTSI
Method: (§1) HEK293F cells were transiently transfected with WT or mutant SSTR2/SSTR4 using transfection reagent (PEI MAX 2000, Polysciences) and incubated at 37 °C in 5% CO2. Forty-eight hours after transfection, cells were centrifuged and resuspended in stimulation buffer (Hanks’ balanced salt solution (HBSS) supplemented with 5 mM HEPES, 0.5 mM IBMX and 0.1% (w/v) bovine serum albumin (BSA), pH 7.4) to a density of 200,000 cells/mL and added to 384-well white plates (PerkinElmer, 1000 cells/well). cAMP accumulation was measured by a LANCE Ultra cAMP kit (PerkinElmer) according to the manufacturer’s instructions. In brief, transfected cells were incubated for 40 min in stimulation buffer with 2.5 μL forskolin (SSTR2: 2 μM; SSTR4: 4 μM) and gradient concentration of ligand at RT. The reactions were stopped by addition of lysis buffer containing 5 μL Eu-cAMP tracer and 5 μL ULight-anti-cAMP. Plates were then incubated for 60 min at RT and time-resolved FRET signals were measured at 620 nm and 665 nm by an EnVision multilabel plate reader (PerkinElmer). Data were analyzed in GraphPad PRISM 8 and all values were normalized to the WT for each ligand. All outcomes were repeated at least three times.
(§2) aMutants represent that mutations were introduced separately into the WT receptors and
(§3) transiently expressed in HEK 293F cells.
(§4) bThe EC50 ratio was shown as EC50(mutant)/EC50(WT), indicating the shift between the WT
(§5) and mutant curves, reflecting the effect of the mutations on receptor signaling.
(§6) cData are shown as mean ± S.E.M. from at least three independent experiments
(§7) performed in technical triplicate. One-way ANOVA was performed followed by
(§8) Dunnett’s post-test and compared with WT. The P value was defined as: *P<0.05;
(§9) d The span is defined as the window between the maximal agonists response (Emax) and
(§10) e Sample size; the number of independent experiments performed in technical triplicate.
(§11) f Receptor expression level of HEK 293F cells was determined independently by flow
(§12) cytometry with anti-FLAG antibody and shown as per cent compared to the WT.

[2] = target: T2, SSTR2 (Homo sapiens, UniProt P30874, D122A); assay: as above; type: cell-based; set-up: expressed in transfected cells; host or cells: HEK293F; details: SSTR2 mutant D122^3.32A; mean ± SEM
T2 sequence (P30874 whole entry D122A): as the sequence (P30874 whole entry) above, with D122A counted along it
Method: as §1, §2, §3, §4, §5, §6, §7, §8, §9, §10, §11, §12

[3] = target: T3, SSTR2 (Homo sapiens, UniProt P30874, F272A); assay: as above; type: cell-based; set-up: expressed in transfected cells; host or cells: HEK293F; details: SSTR2 mutant F272^6.51A; mean ± SEM
T3 sequence (P30874 whole entry F272A): as the sequence (P30874 whole entry) above, with F272A counted along it
Method: as §1, §2, §3, §4, §5, §6, §7, §8, §9, §10, §11, §12

[4] = target: SSTR2 (Homo sapiens, UniProt P30874, F275A); assay: as above; type: cell-based; set-up: expressed in transfected cells; host or cells: HEK293F; details: SSTR2 mutant F275^6.54A; mean ± SEM
Sequence of SSTR2 (Homo sapiens, UniProt P30874, F275A) (P30874 whole entry F275A): as the sequence (P30874 whole entry) above, with F275A counted along it
Method: as §1, §2, §3, §4, §5, §6, §7, §8, §9, §10, §11, §12

[5] = target: T4, SSTR2 (Homo sapiens, UniProt P30874, F294A); assay: as above; type: cell-based; set-up: expressed in transfected cells; host or cells: HEK293F; details: SSTR2 mutant F294^7.35A; mean ± SEM
T4 sequence (P30874 whole entry F294A): as the sequence (P30874 whole entry) above, with F294A counted along it
Method: as §1, §2, §3, §4, §5, §6, §7, §8, §9, §10, §11, §12

[6] = target: T5, SSTR2 (Homo sapiens, UniProt P30874, Q102A); assay: as above; type: cell-based; set-up: expressed in transfected cells; host or cells: HEK293F; details: SSTR2 mutant Q102^2.63A; mean ± SEM
T5 sequence (P30874 whole entry Q102A): as the sequence (P30874 whole entry) above, with Q102A counted along it
Method: as §1, §2, §3, §4, §5, §6, §7, §8, §9, §10, §11, §12

[7] = target: T6, SSTR2 (Homo sapiens, UniProt P30874, Q126A); assay: as above; type: cell-based; set-up: expressed in transfected cells; host or cells: HEK293F; details: SSTR2 mutant Q126^3.36A; mean ± SEM
T6 sequence (P30874 whole entry Q126A): as the sequence (P30874 whole entry) above, with Q126A counted along it
Method: as §1, §2, §3, §4, §5, §6, §7, §8, §9, §10, §11, §12

[8] = target: T7, SSTR2 (Homo sapiens, UniProt P30874, T194A); assay: as above; type: cell-based; set-up: expressed in transfected cells; host or cells: HEK293F; details: SSTR2 mutant T194^ECL2A; mean ± SEM
T7 sequence (P30874 whole entry T194A): as the sequence (P30874 whole entry) above, with T194A counted along it
Method: as §1, §2, §3, §4, §5, §6, §7, §8, §9, §10, §11, §12

[9] = target: SSTR2 (Homo sapiens, UniProt P30874, T212A); assay: as above; type: cell-based; set-up: expressed in transfected cells; host or cells: HEK293F; details: SSTR2 mutant T212^5.42A; mean ± SEM
Sequence of SSTR2 (Homo sapiens, UniProt P30874, T212A) (P30874 whole entry T212A): as the sequence (P30874 whole entry) above, with T212A counted along it
Method: as §1, §2, §3, §4, §5, §6, §7, §8, §9, §10, §11, §12

[10] = target: T8, SSTR2 (Homo sapiens, UniProt P30874, Y205A); assay: as above; type: cell-based; set-up: expressed in transfected cells; host or cells: HEK293F; details: SSTR2 mutant Y205^5.35A
T8 sequence (P30874 whole entry Y205A): as the sequence (P30874 whole entry) above, with Y205A counted along it
Method: as §1, §2, §3, §4, §5, §6, §7, §8, §9, §10, §11, §12

[11] = target: SSTR2 (Homo sapiens, UniProt P30874, Y302A); assay: as above; type: cell-based; set-up: expressed in transfected cells; host or cells: HEK293F; details: SSTR2 mutant Y302^7.43A; mean ± SEM
Sequence of SSTR2 (Homo sapiens, UniProt P30874, Y302A) (P30874 whole entry Y302A): as the sequence (P30874 whole entry) above, with Y302A counted along it
Method: as §1, §2, §3, §4, §5, §6, §7, §8, §9, §10, §11, §12

[12] = target: T1, SSTR2; assay: Whole cell binding assay, SSTR2, competition with 125I-Tyr11-SST14, CHO-K1; details: WT SSTR2, mean ± SEM;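 further: Cell-bound radioactivity in lysed CHO-K1 cells read by scintillation counting, each mutation introduced singly into the WT receptor, at least three independent experiments run in technical triplicate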
Method: (§13) For SSTR2 and SSTR4, CHO-K1 cells were cultured in F12 medium with 10% FBS and seeded at a density of 30,000 cells/well in Isoplate-96 plates (PerkinElmer). Twenty-four hours after transfection with the WT or mutant SSTR2/SSTR4, CHO-K1 cells were washed twice and incubated with blocking buffer (F12 supplemented with 25 mM HEPES and 0.1% (w/v) BSA, pH 7.4) for 2 h at 37 °C. […] Following incubation, cells were washed three times with ice-cold PBS and lysed by 50 μL lysis buffer (PBS supplemented with 20 mM Tris-HCl, 1% Triton X-100, pH 7.4). The radioactivity was subsequently counted (counts/min, CPM) in a scintillation counter (MicroBeta[2] Plate Counter, PerkinElmer) using a scintillation cocktail (OptiPhaseSuperMix, PerkinElmer). Data were analyzed by nonlinear regression using GraphPad PRISM 8.
(§14) aMutants represent that all mutations were introduced separately into the WT receptors
and expressed in CHO K1 cells.
(§15) bThe IC50 ratio was shown as IC50(mutant)/IC50(WT), indicating the shift between the WT
(§16) and mutant curves, reflecting the effect of the mutations on ligand binding.
(§17) cData are shown as mean ± S.E.M. form at least three independent experiments
as §7
(§18) Dunnett’s post-test and compared with WT.
as §9, §10

[13] = target: T2, SSTR2; assay: as above; details: SSTR2 mutant D122^3.32A; mean ± SEM
Method: as §13, §14
and expressed in CHO K1 cells.
as §15, §16, §17, §7, §18, §9, §10

[14] = target: T3, SSTR2; assay: as above; details: SSTR2 mutant F272^6.51A; mean ± SEM
Method: as §13, §14
and expressed in CHO K1 cells.
as §15, §16, §17, §7, §18, §9, §10

[15] = target: T4, SSTR2; assay: as above; details: SSTR2 mutant F294^7.35A; mean ± SEM
Method: as §13, §14
and expressed in CHO K1 cells.
as §15, §16, §17, §7, §18, §9, §10

[16] = target: T5, SSTR2; assay: as above; details: SSTR2 mutant Q102^2.63A; mean ± SEM
Method: as §13, §14
and expressed in CHO K1 cells.
as §15, §16, §17, §7, §18, §9, §10

[17] = target: T6, SSTR2; assay: as above; details: SSTR2 mutant Q126^3.36A; mean ± SEM
Method: as §13, §14
and expressed in CHO K1 cells.
as §15, §16, §17, §7, §18, §9, §10

[18] = target: T7, SSTR2; assay: as above; details: SSTR2 mutant T194^ECL2A; mean ± SEM
Method: as §13, §14
and expressed in CHO K1 cells.
as §15, §16, §17, §7, §18, §9, §10

[19] = target: T8, SSTR2; assay: as above; details: SSTR2 mutant Y205^5.35A; mean ± SEM
Method: as §13, §14
and expressed in CHO K1 cells.
as §15, §16, §17, §7, §18, §9, §10

EC50 ratio ([1]; EC50(mutant)/EC50(WT)): 1 | pEC50 ± SEM ([1]; HEK293F, mean ± SEM, at least three independent experiments): 9.67±0.08 | Span ([1]; window between Emax and vehicle, mean ± SEM): 100±4 % of WT | Span [2]: 41±6 % of WT | pEC50 ± SEM [2]: 7.37±0.27 | Span [3]: 215±18 % of WT | pEC50 ± SEM [3]: 7.85±0.19 | Span [4]: 154±10 % of WT | pEC50 ± SEM [4]: 8.93±0.15 | Span [5]: 95±8 % of WT | pEC50 ± SEM [5]: 8.36±0.20 | Span [6]: 79±6 % of WT | pEC50 ± SEM [6]: 9.46±0.18 | Span [7]: 82±6 % of WT | pEC50 ± SEM [7]: 9.18±0.17 | Span [8]: 104±10 % of WT | pEC50 ± SEM [8]: 9.26±0.23 | Span [9]: 108±5 % of WT | pEC50 ± SEM [9]: 8.94±0.12 | EC50 [10]: 0.01 nM | Span ([10]; mean ± SEM): 143±18 % of WT | Span [11]: 96±8 % of WT | pEC50 ± SEM [11]: 8.67±0.19 | pKi ± SEM ([12]; competition with 125I-SST-14): 8.53 ± 0.13 | Span [12]: 100±6 % of WT | pIC50 ± SEM ([12]; at least three independent experiments): 8.53±0.13 | Span [13]: 15±7 % of WT | Span [14]: 13±3 % of WT | Span [15]: 19±2 % of WT | Span [16]: 20±5 % of WT | pIC50 ± SEM [16]: 6.35±0.52 | Span [17]: 15±5 % of WT | Span [18]: 22±6 % of WT | pIC50 ± SEM [18]: 7.45±0.59 | Span [19]: 70±5 % of WT | pIC50 ± SEM [19]: 8.89±0.15
Compound: C[C@@H](c1c[nH]c2ccccc12)[C@@H](NC(=O)N1CCC(n2c(=O)[nH]c3ccccc32)CC1)C(=O)N[C@@H](CCCCN)C(=O)OC(C)(C)C [L-054,522]
